Assay results as given in patent US20070202512A1, “Human single nucleotide polymorphisms associated with dose-dependent weight gain and methods of use thereof” (Bristol-Myers Squibb Company, priority 2005, published 2007).

Tests used:
[1] = system: glycosylated hemoglobin (HbA1C); assay: Phase II clinical trial CV168-006: glycosylated hemoglobin (HbA1C) by GRL SNP1 (Asn363Ser) genotype; format: in vivo, human; details: patients treated with 20 mg in CV168-006; data up to 24 weeks
Protocol: (§1) Genomic DNA samples from patients enrolled in two Bristol-Myers Squibb Company Phase II clinical trial CV168-006 were genotyped for 1 SNP identified in the human GRL gene (see Example 7) and evaluated for association with weight gain.
(§2) 498 subjects enrolled in the CV168-006 trial were analyzed in this study. All analyses were based on data collected up to 24 weeks, which was the duration of the short-term phase of the trials. DNA was extracted from frozen blood by a third-party (Genaissance Inc, North Carolina) using a salting-out method (Gentra Systems). All subjects gave written informed consent.
(§3) The influence on SNP1 on weight gain and the probability of achieving lower levels of glycosylated hemoglobin (HbA1C) was assessed using ANOVA (GRL; P=0.005; P=0.007; respectively).
(§4) Genotyping was performed using the 5′ nuclease assay, essentially as described (Ranade K et al., Genome Research 11: 1262-1268 (2001); which is hereby incorporated by reference herein in its entirety), with the following modifications: six nanograms of genomic DNA were used in a 8 ul reaction. All PCR reactions were performed in an ABI 9700 machine and fluorescence was measured using an ABI 7900 machine. […]
(§5) Statistical Analyses. The influence of the SNP on weight gain and decreased glycosylated hemoglobin (HbA1C) was assessed using ANOVA. […]

[2] = Phase II clinical trial CV168-006: weight gain by GRL SNP1 (Asn363Ser) genotype; format: in vivo, human; details: patients treated with 20 mg in CV168-006; data up to 24 weeks
Protocol: as §1, §2, §3, §4, §5

[3] = Phase II clinical trial CV168-006: weight gain by PPAR-alpha SNP1 (Leu162Val) genotype; format: in vivo, human
Protocol: Genomic DNA samples from patients enrolled in a Bristol-Myers Squibb Company Phase II clinical trial CV168-006 trial were genotyped for 1 SNP identified in the human PPAR-alpha gene (see Example 1) and evaluated for association with weight gain.
as §2
Genotyping was performed using the 5′ nuclease assay, essentially as described (Ranade K et al., Genome Research 11: 1262-1268 (2001); which is hereby incorporated by reference herein in its entirety), with the following modifications: six nanograms of genomic DNA were used in a 8 ul reaction. All PCR reactions were performed in an ABI 9700 machine and fluorescence was measured using an ABI 7900 machine.
The association between weight gain and the single nucleotide polymorphisms of the present invention were investigated by applying statistical analysis to the results of the genotyping assays described elsewhere herein. […]
Statistical Analyses. The influence of the SNP on weight gain was assessed using ANOVA. […]

[4] = thought to be due to increased fluid retention and fat accumulation; cited from earlier work

Compound	influence of GRL SNP1 on lower levels of glycosylated hemoglobin (HbA1C), P (ANOVA) [1]	influence of GRL SNP1 on weight gain, P (ANOVA) [2]	weight gain, carriers of the Valine allele vs homozygous Leucine allele (PPARα residue 162) ([3]; patients of a Phase II trial, Val carriers compared with Leu/Leu)	influence of PPAR-alpha SNP1 on weight gain, P (ANOVA) ([3]; patients treated with 20 mg in CV168-006, data up to 24 weeks)	weight gain (side effect) [4]
COc1ccc(OC(=O)N(CC(=O)O)Cc2ccc(OCCc3nc(-c4ccccc4)oc3C)cc2)cc1 [Compound A, N-[(4-methoxyphenoxy)carbonyl]-N-[[4-[2-(5-methyl-2-phenyl-4-oxazolyl)ethoxy]phenyl]methyl]glycine]	0.007	0.005	gained significantly less weight	0.039	result in weight gain
CCc1ccc(CCOc2ccc(CC3SC(=O)NC3=O)cc2)nc1 (stereo not shown) [pioglitazone]	–	–	–	–	can cause weight gain in some individuals
CN(CCOc1ccc(CC2SC(=O)NC2=O)cc1)c1ccccn1 (stereo not shown) [rosiglitazone]	–	–	–	–	can cause weight gain in some individuals
